Experimental data reported in patent US11583507B2, “Direct AMPK activator compounds” (SOCIETE DES PRODUITS NESTLE S.A., priority 2018, dated 2023).

Tests used:
AMPKα2β1γ1 (211) = target: T1, AMPKα2β1γ1 (211) (Homo sapiens, UniProt P54619+P54646+Q9Y478); assay: AMPK in vitro activity assay (HTRF-KinEASE), phosphorylated bacterially-expressed complex; assay type: biochemical; conditions: fold activation vs complex without compound; 30 mins incubation
T1 construct: His; made in house; host or cells: bacteria
T1 sequence (P54646 whole entry): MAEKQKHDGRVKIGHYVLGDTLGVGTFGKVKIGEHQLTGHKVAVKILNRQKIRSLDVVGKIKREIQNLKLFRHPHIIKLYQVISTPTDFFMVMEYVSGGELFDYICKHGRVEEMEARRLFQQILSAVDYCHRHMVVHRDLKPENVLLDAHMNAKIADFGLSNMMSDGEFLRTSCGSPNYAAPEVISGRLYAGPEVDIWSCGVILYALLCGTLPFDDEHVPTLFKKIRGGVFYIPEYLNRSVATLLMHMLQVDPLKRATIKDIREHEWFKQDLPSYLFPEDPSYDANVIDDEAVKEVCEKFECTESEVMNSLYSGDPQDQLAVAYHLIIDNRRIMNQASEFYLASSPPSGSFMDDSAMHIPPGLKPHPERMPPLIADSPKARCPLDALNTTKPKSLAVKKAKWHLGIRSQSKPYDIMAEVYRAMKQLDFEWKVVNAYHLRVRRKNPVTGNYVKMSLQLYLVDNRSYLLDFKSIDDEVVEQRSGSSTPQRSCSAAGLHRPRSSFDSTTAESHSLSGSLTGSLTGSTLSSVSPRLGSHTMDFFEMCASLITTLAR
T1 sequence (Q9Y478 whole entry): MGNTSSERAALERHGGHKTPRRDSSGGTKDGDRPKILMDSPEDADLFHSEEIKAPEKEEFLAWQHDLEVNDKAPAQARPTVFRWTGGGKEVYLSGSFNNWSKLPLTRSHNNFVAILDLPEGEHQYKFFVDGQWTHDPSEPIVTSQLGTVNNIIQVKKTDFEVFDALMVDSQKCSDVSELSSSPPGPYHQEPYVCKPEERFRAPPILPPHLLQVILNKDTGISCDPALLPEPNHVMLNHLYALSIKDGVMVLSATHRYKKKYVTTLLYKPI
T1 sequence (P54619 whole entry): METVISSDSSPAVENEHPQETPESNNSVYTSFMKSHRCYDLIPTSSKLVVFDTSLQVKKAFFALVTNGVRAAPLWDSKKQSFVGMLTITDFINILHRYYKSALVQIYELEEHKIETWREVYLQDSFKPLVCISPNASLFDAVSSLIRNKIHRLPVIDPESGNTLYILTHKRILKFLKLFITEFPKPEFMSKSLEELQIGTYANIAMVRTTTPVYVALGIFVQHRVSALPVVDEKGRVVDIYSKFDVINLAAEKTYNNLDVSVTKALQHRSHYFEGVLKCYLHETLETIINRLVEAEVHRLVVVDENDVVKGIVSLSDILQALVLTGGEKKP
Experimental: (§1) Lusianthridin (CAS 87530-30-1) was isolated from Thunia alba fruit. It was sourced from Analyticon (NP-012362). The plant was purchased through Analyticon's biomaterial supplier in 2003. The country of origin is Nepal. The AMPK heterotrimers were expressed in bacteria and purified through the His-α subunit by nickel purification. AMPK complexes were purified through gel filtration and phosphorylated by incubation with CaMKKβ, and further purified with a final gel filtration purification step. Phosphorylated purified AMPK was incubated with varying concentrations of ligand for 30 mins using substrate and reagents from the HTRF-KinEASE Cisbio assay kit (STK S1 Kit). Phosphorylation of the substrate was measured by incubating with donor and acceptor antibodies for 2 h at room temperature as per the manufacturer's protocol (and Coulerie et al., (2016) PMID: 27792327) and phosphorylated peptide detected by performing HTRF. The 665 nm/620 nm ratio was determined and the results are plotted as fold activation compared to the respective AMPK complex without any compound.

AMPK substrate, ACC = assay: pACC HTRF assay in mouse primary hepatocytes; assay type: cell-based; conditions: 1 h incubation at 37 C, dose-dependent
Experimental: Hepatocyte isolation: The liver was first perfused with 50 ml perfusion buffer (Krebs-Hepes buffer with […] EDTA), followed with 50 ml collagenase A buffer (Krebs-Hepes buffer with 5 mM CaCl2 and 0.5 mg/ml collagenase). […] Hepatocytes were left to attach (3-4 h) and cultured overnight in M199 supplemented with antibiotics and 100 nM dexamethasone. Cells were used for experiments the following morning. Primary hepatocytes were seeded at 15 K cells in a 96-well plate overnight. Cells were treated for 1 h with varying concentrations of Lusianthridin in media and then cells were lysed in 50 μl of Cisbio lysis buffer #1 supplemented with blocking solution as per the manufacturer's protocol (Cisbio). Cells were lysed for 30 mins at room temperature before 16 μl of lysate was incubated with 4 μl of the HTRF antibodies. Lysates were incubated overnight with the antibody before 665 nm/620 nm ratio was determined using a MolecularDevices i3 plate reader (with a HTRF cartridge add-on).

[1] = target: T2, AMPK α2β1γ1 R298G (211 R298G) mutant (Homo sapiens, UniProt P54619+P54646+Q9Y478, R299G); assay: AMPK in vitro activity assay (HTRF-KinEASE), γ1 R298G mutant; assay type: biochemical; conditions: mutation in the γ1 AMP binding pocket
T2 construct: His; made in house; host or cells: bacteria
T2 sequence (P54646 whole entry): as the sequence (P54646 whole entry) above
T2 sequence (Q9Y478 whole entry): as the sequence (Q9Y478 whole entry) above
T2 sequence (P54619 whole entry R299G): as the sequence (P54619 whole entry) above, with R299G counted along it
Experimental: as §1

[2] = system: AMPK β1 WT (phosphorylation of ACC); assay: pACC (HTRF and western blot) in AMPKβ1/β2 double knockout U2-OS Flp-In T-Rex cells stably expressing β1 WT; assay type: cell-based, human
Excerpt: AMPKβ1/β2 double knockout U2-OS Flp-In™ T-Rex™ cell lines were generated by Horizon Discovery (Cambridge, UK). Cells were genotyped and analysed by western blotting to confirm that there was a complete knockout of AMPKβ1/β2. We took these AMPKβ1/β2 double knockout cells, and re-introduced the expression of human β1 wild-type (WT) or a β1 Serine 108 to alanine mutation (S108A). This was achieved using the Flp-In™ system (Invitrogen) present in this cell line and stable cells expressing β1 WT or a β1 S108A mutant were generated according to the manufacturers' protocols. Re-expression of the β1 subunit was confirmed by western blot analysis.
Cells stably expressing β1 WT or a β1 S108A mutant were treated with varying concentrations of Lusianthridin and subjected to the pACC HTRF (Cisbio) assay or western blot analysis to determine phosphorylation of the AMPK substrate, ACC, in cells lysates. Western blots were quantified using the LI-COR odyssey system and shown as the ratio of the antibody signal from pACC divided by total ACC.

primary hepatocytes = assay: Lipogenesis ([1-14C]-acetate incorporation into fatty acids) in primary hepatocytes; assay type: cell-based, mouse; conditions: 1 h at 37 C, varying concentrations
Experimental: Hepatocyte isolation: The liver was first perfused with 50 ml perfusion buffer (Krebs-Hepes buffer with […] EDTA), followed with 50 ml collagenase A buffer (Krebs-Hepes buffer with 5 mM CaCl2 and 0.5 mg/ml collagenase). […] Hepatocytes were left to attach (3-4 h) and cultured overnight in M199 supplemented with antibiotics and 100 nM dexamethasone. Cells were used for experiments the following morning. For primary hepatocyte isolation see Example 4. For lipogenesis measurements in primary hepatocytes, cells were seeded at 600 K cells per well in a 6-well plate overnight. Media was replaced with fresh M199 media alone for 2 hours prior to incubation with varying concentrations of Lusianthridin for 1 h at 37 C, in the presence of [1-^14C]-acetate. The incorporation of [^14C] into fatty acids was determined in the lower organic layer after separation from the aqueous phase. […] Lipogenesis is controlled by the AMPK substrate ACC, and phosphorylation and inhibition of ACC by AMPK, leads to a decrease in lipogenesis. Lipogenesis was measured in primary hepatocytes by determining the incorporation of ^14C-labelled acetate into fatty acids. Lipogenesis was monitored in the presence or absence of varying concentrations of Lusianthridin for 1 h at 37 C. […] This observation is consistent with its ability to activate AMPK in hepatocytes, which leads to the phosphorylation and inhibition of ACC.

[3] = system: AMPK α2β1γ1 ΔCBM mutant (211 ΔCBM); assay: AMPK in vitro activity assay (HTRF-KinEASE), ΔCBM mutant; assay type: biochemical; conditions: carbohydrate-binding module deleted
Experimental: as §1

Compound: COc1cc(O)c2c(c1)CCc1cc(O)ccc1-2 [Lusianthridin, 7-Methoxy-9,10-dihydrophenanthrene-2,5-diol]
- activation of bacterially-expressed AMPKα2β1γ1 complexes (AMPKα2β1γ1 (211)): Activates
- phosphorylation of the AMPK substrate ACC (pACC HTRF) (AMPK substrate, ACC): increases
- activation of AMPK α2β1γ1 γ1 R298G mutant complexes [1]: still activates
- pACC (HTRF and western blot, pACC/total ACC) ([2]; FIGS. 19 and 20): dose-dependently increase pACC
- pACC (HTRF assay) ([2]; varying concentrations, 30 mins at 37 C): capable of activating
- rate of lipogenesis (DPM per μg of protein) (primary hepatocytes): inhibit lipogenesis in a dose-dependent manner
- activation of α2β1γ1 ΔCBM mutant [3]: does not activate
